Assay results: patent publication US20250230193A1, “CYCLIC COMPOUND HAVING SELECTIVE KRAS INHIBITORY EFFECT ON HRAS AND NRAS” (CHUGAI SEIYAKU KABUSHIKI KAISHA, priority 2022, published 2025)

Legend:
[1] = biological target: GDP-bound KRAS wild-type protein (Homo sapiens, UniProt P01116); assay: Binding to KRAS by surface plasmon resonance (SPR), Single Cycle Kinetics; details: SPR, Single Cycle Kinetics; GDP-bound KRAS wild-type protein
[2] = biological target: GDP-bound NRAS wild-type protein (Homo sapiens, UniProt P01111); assay: Binding to NRAS by surface plasmon resonance (SPR), Single Cycle Kinetics; details: SPR; KD ratio class
Chain of GDP-bound NRAS wild-type protein (P01111 whole entry): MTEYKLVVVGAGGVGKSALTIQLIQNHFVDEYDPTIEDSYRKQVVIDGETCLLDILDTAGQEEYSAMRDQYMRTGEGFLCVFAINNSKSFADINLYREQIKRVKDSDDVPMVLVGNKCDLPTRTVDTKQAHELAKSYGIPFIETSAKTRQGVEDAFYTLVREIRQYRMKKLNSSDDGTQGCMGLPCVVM

[3] = biological target: GDP-bound HRAS wild-type protein (Homo sapiens, UniProt P01112); assay: Binding to HRAS by surface plasmon resonance (SPR), Single Cycle Kinetics; details: SPR; KD ratio class
Chain of GDP-bound HRAS wild-type protein (P01112 whole entry): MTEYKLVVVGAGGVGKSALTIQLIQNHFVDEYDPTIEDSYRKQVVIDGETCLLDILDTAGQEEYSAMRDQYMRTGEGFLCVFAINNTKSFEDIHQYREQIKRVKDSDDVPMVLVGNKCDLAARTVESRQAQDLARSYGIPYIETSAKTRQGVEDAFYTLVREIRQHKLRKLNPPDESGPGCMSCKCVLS

[4] = test system: human lung cancer strain NCI-H441; details: read-out: NCI-H441 IC50; NCI-H441 cells, 4 days, CellTiter-Glo

| Kd [1] [nM] | IC50 [4] [nM] | SMILES | NRAS/KRAS (ratio of KD value for GDP-bound NRAS wild-type protein to KD value for KRAS) [2] | HRAS/KRAS (ratio of KD value for GDP-bound HRAS wild-type protein to KD value for KRAS) [3] |
| --- | --- | --- | --- | --- |
| 0.081 | 9 | CCCCCC[C@H]1C(=O)N[C@@H]([C@@H](C)CC)C(=O)N(C)CC(=O)N(C)[C@H]2C/C=C\CCN(C2=O)[C@@H](Cc2ccc(C(F)(F)F)cc2)C(=O)N(C)CC(=O)N[C@@H](CCc2ccc(C(F)(F)F)c(OC)c2)C(=O)N2C[C@H](OCC)C[C@H]2C(=O)NC2(CCC2)C(=O)N(C)[C@@H](C2CCCC2)C(=O)N(C)[C@H](C(=O)N(C)C)CC(=O)N1C [PP1246] | A (a compound having 10 or more and less than 20 is denoted as A) | A (a compound having 10 or more and less than 20 is denoted as A) |
| 0.046 | 6.4 | CCO[C@@H]1C[C@H]2C(=O)NC3(CCC3)C(=O)N(C)[C@@H](C3CCCC3)C(=O)N(C)[C@H](C(=O)N(C)C)CC(=O)N(C)[C@@H](CC3CC3)C(=O)N[C@@H]([C@@H](C)CC)C(=O)N(C)CC(=O)N(C)[C@H]3C/C=C\CCN(C3=O)[C@@H](Cc3ccc(C(F)(F)F)cc3)C(=O)N(C)CC(=O)N[C@@H](CCc3ccc(C(F)(F)F)c(OC)c3)C(=O)N2C1 [PP1247] | A (a compound having 10 or more and less than 20 is denoted as A) | A (a compound having 10 or more and less than 20 is denoted as A) |
| 0.2 | 22.2 | CCO[C@@H]1C[C@H]2C(=O)NC3(CCC3)C(=O)N(C)[C@@H](C3CCCC3)C(=O)N(C)[C@H](C(=O)N(C)C)CC(=O)N(C)[C@@H](CC3CC3)C(=O)N[C@@H]([C@@H](C)CC)C(=O)N(C)CC(=O)N(C)[C@H]3C/C=C\CCN(C3=O)[C@@H](Cc3ccc(C(F)(F)F)cc3)C(=O)N(C)CC(=O)N[C@@H](CCc3ccc(Cl)c(Cl)c3)C(=O)N2C1 [PP1253] | A (a compound having 10 or more and less than 20 is denoted as A) | A (a compound having 10 or more and less than 20 is denoted as A) |
| 0.44 | 76.8 | CCO[C@@H]1C[C@H]2C(=O)NC3(CCC3)C(=O)N(C)[C@@H](C3CCCC3)C(=O)N(C)[C@H](C(=O)N(C)C)CC(=O)N(C)[C@@H](CC3CCCC3)C(=O)N[C@@H]([C@@H](C)CC)C(=O)N(C)CC(=O)N(C)[C@H]3C/C=C\CCN(C3=O)[C@@H](Cc3ccc(C(F)(F)F)cc3)C(=O)N(C)CC(=O)N[C@@H](CCc3ccc4sccc4c3)C(=O)N2C1 [PP1261] | A (a compound having 10 or more and less than 20 is denoted as A) | A (a compound having 10 or more and less than 20 is denoted as A) |
| 0.045 | 12.2 | CCOC[C@H]1C(=O)N[C@@H]([C@@H](C)CC)C(=O)N(C)CC(=O)N(C)[C@H]2C/C=C\CCN(C2=O)[C@@H](Cc2ccc(C(F)(F)F)cc2)C(=O)N(C)CC(=O)N[C@@H](CCc2cc(F)c(C(F)(F)F)c(F)c2)C(=O)N2C[C@H](OCC)C[C@H]2C(=O)NC2(CCC2)C(=O)N(C)[C@@H](C2CCCC2)C(=O)N(C)[C@H](C(=O)N(C)C)CC(=O)N1C [PP1266] | A (a compound having 10 or more and less than 20 is denoted as A) | A (a compound having 10 or more and less than 20 is denoted as A) |
| 0.046 | 10.8 | CCO[C@@H]1C[C@H]2C(=O)NC3(CCC3)C(=O)N(C)[C@@H](C3CCCC3)C(=O)N(C)[C@H](C(=O)N(C)C)CC(=O)N(C)[C@@H](COCC(F)(F)F)C(=O)N[C@@H]([C@@H](C)CC)C(=O)N(C)CC(=O)N(C)[C@H]3C/C=C\CCN(C3=O)[C@@H](Cc3ccc(C(F)(F)F)cc3)C(=O)N(C)CC(=O)N[C@@H](CCc3cc(F)c(C(F)(F)F)c(F)c3)C(=O)N2C1 [PP1267] | A (a compound having 10 or more and less than 20 is denoted as A) | A (a compound having 10 or more and less than 20 is denoted as A) |
| 0.045 | 12.1 | CCO[C@@H]1C[C@H]2C(=O)NC3(CCC3)C(=O)N(C)[C@@H](C3CCCC3)C(=O)N(C)[C@H](C(=O)N(C)C)CC(=O)N(C)[C@@H](COC3CC3)C(=O)N[C@@H]([C@@H](C)CC)C(=O)N(C)CC(=O)N(C)[C@H]3C/C=C\CCN(C3=O)[C@@H](Cc3ccc(C(F)(F)F)cc3)C(=O)N(C)CC(=O)N[C@@H](CCc3cc(F)c(C(F)(F)F)c(F)c3)C(=O)N2C1 [PP1268] | A (a compound having 10 or more and less than 20 is denoted as A) | A (a compound having 10 or more and less than 20 is denoted as A) |
| 0.054 | 90.7 | CC[C@H](C)[C@@H]1NC(=O)[C@H](C)N(C)C(=O)C[C@@H](C(=O)N(C)C)N(C)C(=O)[C@H](C2CCCC2)N(C)C(=O)C2(CCC2)NC(=O)[C@@H]2CCCN2C(=O)[C@H](CCc2cc(F)c(C(F)(F)F)c(F)c2)NC(=O)CN(C)C(=O)[C@H](Cc2ccc(C(F)(F)F)cc2)N2CC/C=C\C[C@@H](C2=O)N(C)C(=O)CN(C)C1=O [PP1271] | AA (a compound having 20 or more is denoted as AA) | A (a compound having 10 or more and less than 20 is denoted as A) |
| 0.066 | 20.8 | CCO[C@@H]1C[C@H]2C(=O)NC3(CCCC3)C(=O)N(C)[C@@H](C3CCCC3)C(=O)N(C)[C@H](C(=O)N(C)C)CC(=O)N(C)[C@@H](CC)C(=O)N[C@@H]([C@@H](C)CC)C(=O)N(C)CC(=O)N(C)[C@H]3C/C=C\CCN(C3=O)[C@@H](Cc3ccc(C(F)(F)F)cc3)C(=O)N(C)CC(=O)N[C@@H](CCc3cc(F)c(C(F)(F)F)c(F)c3)C(=O)N2C1 [PP1276] | A (a compound having 10 or more and less than 20 is denoted as A) | B (a compound having 3 or more and less than 10 is denoted as B) |
| 0.12 | 14.7 | CCO[C@@H]1C[C@H]2C(=O)NC3(CCC3)C(=O)N(C)[C@@H](C3CCCC3)C(=O)N(C)[C@H](C(=O)N3CCCC3)CC(=O)N(C)[C@@H](CC3CC3)C(=O)N[C@@H]([C@@H](C)CC)C(=O)N(C)CC(=O)N(C)[C@H]3C/C=C\CCN(C3=O)[C@@H](Cc3ccc(C(F)(F)F)cc3)C(=O)N(C)CC(=O)N[C@@H](CCc3cc(F)c(C(F)(F)F)c(F)c3)C(=O)N2C1 [PP1296] | AA (a compound having 20 or more is denoted as AA) | A (a compound having 10 or more and less than 20 is denoted as A) |
| 0.14 | 11 | CCC[C@H]1C(=O)N[C@@H]([C@@H](C)CC)C(=O)N(C)CC(=O)N(C)[C@H]2C/C=C\CCN(C2=O)[C@@H](Cc2ccc(C(F)(F)F)cc2)C(=O)N(C)CC(=O)N[C@@H](CCc2cc(F)c(C(F)(F)F)c(F)c2)C(=O)N2C[C@H](OCC)C[C@H]2C(=O)NC2(CCC2)C(=O)N(C)[C@@H](C2CCCC2)C(=O)N(C)[C@H](C(=O)N2CCCC2)CC(=O)N1C [PP1299] | A (a compound having 10 or more and less than 20 is denoted as A) | A (a compound having 10 or more and less than 20 is denoted as A) |
| 0.073 | 3.7 | CCCC[C@H]1C(=O)N[C@@H]([C@@H](C)CC)C(=O)N(C)CC(=O)N(C)[C@H]2C/C=C\CCN(C2=O)[C@@H](Cc2ccc(C(F)(F)F)cc2)C(=O)N(C)CC(=O)N[C@@H](CCc2cc(F)c(C(F)(F)F)c(F)c2)C(=O)N2C[C@H](OCC)C[C@H]2C(=O)NC2(CCCC2)C(=O)N(C)[C@@H](C2CCCC2)C(=O)N(C)[C@H](C(=O)N(C)C)CC(=O)N1C [PP1397] | A (a compound having 10 or more and less than 20 is denoted as A) | A (a compound having 10 or more and less than 20 is denoted as A) |
| 0.032 | 2.3 | CCCOC[C@H]1C(=O)N[C@@H]([C@@H](C)CC)C(=O)N(C)CC(=O)N(C)[C@H]2C/C=C\CCN(C2=O)[C@@H](Cc2ccc(C(F)(F)F)cc2)C(=O)N(C)CC(=O)N[C@@H](CCc2cc(F)c(C(F)(F)F)c(F)c2)C(=O)N2C[C@H](OCC)C[C@H]2C(=O)NC2(CC(C)(C)C2)C(=O)N(C)[C@@H](C2CCCC2)C(=O)N(C)[C@H](C(=O)N(C)C)CC(=O)N1C [PP1398] | A (a compound having 10 or more and less than 20 is denoted as A) | A (a compound having 10 or more and less than 20 is denoted as A) |
| 0.074 | 18.7 | CCO[C@@H]1C[C@H]2C(=O)NC3(CCC3)C(=O)N(C)[C@@H](C3CCCC3)C(=O)N(C)[C@H](C(=O)N(C)C)CC(=O)N(C)[C@@H](CC3CC3)C(=O)N[C@@H]([C@@H](C)CC)C(=O)N(C)CC(=O)N(C)[C@H]3C/C=C\CCN(C3=O)[C@@H](Cc3ccc(C)cc3)C(=O)N(C)CC(=O)N[C@@H](CCc3cc(F)c(C(F)(F)F)c(F)c3)C(=O)N2C1 [PP1407] | A (a compound having 10 or more and less than 20 is denoted as A) | A (a compound having 10 or more and less than 20 is denoted as A) |
